Measured values reported in patent publication US20250108038A1 (priority 2023, published 2025).

Tests used:
OCT2 = molecular target: T1, OCT2 (Homo sapiens, UniProt O15244); assay: Uptake transporter inhibition assay, OCT2 (metformin)
T1 sequence (O15244 1-555): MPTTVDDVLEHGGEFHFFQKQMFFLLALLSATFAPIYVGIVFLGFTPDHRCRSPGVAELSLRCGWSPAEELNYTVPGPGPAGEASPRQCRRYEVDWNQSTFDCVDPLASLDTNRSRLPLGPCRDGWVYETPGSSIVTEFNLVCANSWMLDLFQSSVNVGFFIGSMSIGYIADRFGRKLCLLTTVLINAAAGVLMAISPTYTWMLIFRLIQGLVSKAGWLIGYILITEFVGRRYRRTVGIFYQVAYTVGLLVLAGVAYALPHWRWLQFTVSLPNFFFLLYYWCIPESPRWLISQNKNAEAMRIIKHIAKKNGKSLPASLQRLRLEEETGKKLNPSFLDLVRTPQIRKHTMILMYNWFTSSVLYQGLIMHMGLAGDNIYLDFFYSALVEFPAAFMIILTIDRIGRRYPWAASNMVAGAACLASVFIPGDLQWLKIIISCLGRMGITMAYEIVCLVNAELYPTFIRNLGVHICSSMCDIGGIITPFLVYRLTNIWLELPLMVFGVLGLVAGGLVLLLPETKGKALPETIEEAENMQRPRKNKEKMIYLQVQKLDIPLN
Description: (§1) Uptake experiments were performed using HEK293 cells stably expressing the respective uptake transporters. The assays were conducted according to the actual SOLVO uptake transporter assay protocols (PR-ASY-UPT-General Protocol for Uptake Transporter Inhibition Assays).
(§2) Cells were cultured at 37° C. in a humidified atmosphere containing 5% CO2 and were plated onto standard 96-well tissue culture plates.
(§3) Before the experiment, the medium was removed, and the cells were washed twice with 100 μL of pre-warmed (37° C.) assay buffer listed in Table 15. The cells were pre-incubated at 37° C. for 30 minutes in assay buffer containing the test article at appropriate concentrations (Table 16), appropriate solvents for solvent controls and the reference inhibitor for reference inhibitor wells. After the pre-incubation step solutions were removed. Uptake experiments were performed at 37° C. in 50 μL of assay buffer containing the probe substrate and the test article or solvent and controls.
(§4) After the experiment, cells were washed twice with 100 μL of appropriate cold buffer and lysed with 150 μL scintillation cocktail. Radiolabeled probe substrate transport was determined by liquid scintillation counting.
(§5) Uptake of the probe substrate in control cells provided background activity values for all data points.

OATP1B3 = molecular target: T2, OATP1B3 (Homo sapiens, UniProt Q9NPD5); assay: Uptake transporter inhibition assay, OATP1B3 (CCK-8)
T2 sequence (Q9NPD5 1-702): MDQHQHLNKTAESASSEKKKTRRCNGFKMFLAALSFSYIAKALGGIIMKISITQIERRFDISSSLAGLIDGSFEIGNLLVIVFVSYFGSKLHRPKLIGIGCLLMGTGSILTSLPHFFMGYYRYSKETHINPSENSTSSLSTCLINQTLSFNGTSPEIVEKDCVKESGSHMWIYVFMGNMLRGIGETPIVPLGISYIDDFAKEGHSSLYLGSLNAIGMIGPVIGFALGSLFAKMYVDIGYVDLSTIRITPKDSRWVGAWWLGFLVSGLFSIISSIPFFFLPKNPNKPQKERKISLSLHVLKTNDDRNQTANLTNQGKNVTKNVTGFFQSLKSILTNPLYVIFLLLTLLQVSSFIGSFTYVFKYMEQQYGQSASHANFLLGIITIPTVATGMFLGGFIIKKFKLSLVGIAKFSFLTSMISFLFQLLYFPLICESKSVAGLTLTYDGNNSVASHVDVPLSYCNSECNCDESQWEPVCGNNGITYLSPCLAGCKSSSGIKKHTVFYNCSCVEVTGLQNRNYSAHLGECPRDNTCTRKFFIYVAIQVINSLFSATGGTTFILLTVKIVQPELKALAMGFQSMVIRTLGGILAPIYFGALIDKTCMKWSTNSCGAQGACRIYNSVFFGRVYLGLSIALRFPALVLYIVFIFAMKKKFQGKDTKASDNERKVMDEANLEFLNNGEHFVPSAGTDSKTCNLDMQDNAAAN
Description: as §1, §2, §3, §4, §5

[1] = Metabolic stability in human intestinal homogenate; format: in vitro ADME
Description: The intestinal homogenate mixture solution was added to 96-well plates ([…]) in duplicate. […] Reaction was initiated by adding cofactor solution at 10 μL/well.
The intrinsic clearances were calculated using the following equations: […]

[2] = 0.14 μM nominal, 0.09 μM NSB corrected, follow-up assay
[3] = 1.24 μM nominal, 0.86 μM NSB corrected, follow-up assay
[4] = 10.00 μM nominal, 6.60 μM NSB corrected
[5] = 11.11 μM nominal, 7.89 μM NSB corrected, follow-up assay
[6] = 33.33 μM nominal, 24.33 μM NSB corrected, follow-up assay
[7] = 100.00 μM nominal, 77.00 μM NSB corrected
[8] = 100.00 μM nominal, 100.00 μM NSB corrected, follow-up assay
[9] = […] nominal, 1.89 μM NSB corrected, follow-up assay
[10] = 1 μM, 0.5 mg/mL homogenate, 1 mM NADPH
[11] = 1 μM, NCF60 (60 min, no cofactors)

Compound: Clc1ccc(C2(OCC3OCCO3)c3ccccc3C3=NCCN32)cc1 (stereo not shown) [Compound I-19]
- Relative inhibition (OCT2; [2]): 1%
- Relative transporter specific accumulation (OCT2; [2]): 98.93 ± 6.26 % of control
- Transporter specific accumulation (OCT2; [2]): 339.33 ± 6.18 cpm
- Relative inhibition (OCT2; [3]): 19%
- Relative transporter specific accumulation (OCT2; [3]): 81.44 ± 5.58 % of control
- Transporter specific accumulation (OCT2; [3]): 279.33 ± 8.96 cpm
- Relative inhibition (OCT2; [4]): 69%
- Relative transporter specific accumulation (OCT2; [4]): 30.61 ± 3.54 % of control
- Transporter specific accumulation (OCT2; [4]): 126.00 ± 14.46 cpm
- Relative inhibition (OCT2; [5]): 60%
- Relative transporter specific accumulation (OCT2; [5]): 39.65 ± 3.63 % of control
- Transporter specific accumulation (OCT2; [5]): 136.00 ± 9.32 cpm
- Relative inhibition (OCT2; [6]): 87%
- Relative transporter specific accumulation (OCT2; [6]): 12.63 ± 3.35 % of control
- Transporter specific accumulation (OCT2; [6]): 43.33 ± 11.20 cpm
- Relative inhibition (OCT2; [7]): 98%
- Relative transporter specific accumulation (OCT2; [7]): 1.78 ± 0.65 % of control
- Transporter specific accumulation (OCT2; [7]): 7.33 ± 2.67 cpm
- Relative inhibition (OCT2; [8]): 97%
- Relative transporter specific accumulation (OCT2; [8]): 3.16 ± 1.38 % of control
- Transporter specific accumulation (OCT2; [8]): 10.83 ± 4.69 cpm
- maximum inhibition of OCT2-mediated metformin accumulation (OCT2; 2-concentration assay, 100 μM (Compound A 30 μM)): 98%
- Maximum % inhibition (OCT2; OCT2, HEK293 cells, metformin (10 μM), NIO: no inhibition observed): 97%
- Relative inhibition (OCT2; [9]): 29%
- Relative transporter specific accumulation (OCT2; [9]): 70.94 ± 7.30 % of control
- Transporter specific accumulation (OCT2; [9]): 243.33 ± 20.22 cpm
- maximum inhibition of OCT2-mediated metformin accumulation (OCT2; follow-up assay): 97%
- IC50 (OCT2; follow-up assay, NSB-corrected concentrations for Compound I-19): 8.95 µM
- Relative inhibition (OATP1B3; [2]): 1%
- Relative transporter specific accumulation (OATP1B3; [2]): 99.35 ± 3.01 % of control
- Transporter specific accumulation (OATP1B3; [2]): 1,167.00 ± 32.35 cpm
- Relative inhibition (OATP1B3; [3]): 8%
- Relative transporter specific accumulation (OATP1B3; [3]): 91.63 ± 3.53 % of control
- Transporter specific accumulation (OATP1B3; [3]): 1,076.33 ± 39.37 cpm
- Relative inhibition (OATP1B3; [4]): 7%
- Relative transporter specific accumulation (OATP1B3; [4]): 93.13 ± 0.99 % of control
- Transporter specific accumulation (OATP1B3; [4]): 1,953.33 ± 8.60 cpm
- Relative inhibition (OATP1B3; [5]): 20%
- Relative transporter specific accumulation (OATP1B3; [5]): 80.11 ± 4.16 % of control
- Transporter specific accumulation (OATP1B3; [5]): 941.00 ± 47.56 cpm
- Relative inhibition (OATP1B3; [6]): 23%
- Relative transporter specific accumulation (OATP1B3; [6]): 77.21 ± 2.52 % of control
- Transporter specific accumulation (OATP1B3; [6]): 907.00 ± 27.52 cpm
- Relative inhibition (OATP1B3; [7]): 50%
- Relative transporter specific accumulation (OATP1B3; [7]): 50.40 ± 2.21 % of control
- Transporter specific accumulation (OATP1B3; [7]): 1,057.00 ± 45.14 cpm
- Relative inhibition (OATP1B3; [8]): 61%
- Relative transporter specific accumulation (OATP1B3; [8]): 39.13 ± 2.03 % of control
- Transporter specific accumulation (OATP1B3; [8]): 459.67 ± 23.17 cpm
- maximum inhibition of OATP1B3-mediated CCK-8 accumulation (OATP1B3; 2-concentration assay, up to 100 μM (Compound A up to 30 μM)): 50%
- Maximum % inhibition (OATP1B3; OATP1B3, HEK293 cells, CCK-8 (1 μM), NIO: no inhibition observed): 61%
- Relative inhibition (OATP1B3; [9]): 4%
- Relative transporter specific accumulation (OATP1B3; [9]): 96.17 ± 1.42 % of control
- Transporter specific accumulation (OATP1B3; [9]): 1,129.67 ± 9.53 cpm
- maximum inhibition of OATP1B3-mediated CCK-8 accumulation (OATP1B3; follow-up assay): 61%
- IC50 (OATP1B3; follow-up assay, NSB-corrected concentrations): 82.8 µM
- Compound A formed (Aa/Ai) ([1]; 0 min): 0.76
- % Remaining ([1]; 1 μM, 0 min): 100%
- Aa/Ai Mean (n = 2) ([1]; 1 μM, 0 min): 0.90
- CLint(HIH) [1, 10]: 20.0 µL/min/mg
- T1/2 [1, 10]: 1.16 h
- % Remaining ([1]; 1 μM, 5 min): 85.6%
- Aa/Ai Mean (n = 2) ([1]; 1 μM, 5 min): 0.77
- % Remaining ([1]; 1 μM, 10 min): 82.8%
- Aa/Ai Mean (n = 2) ([1]; 1 μM, 10 min): 0.75
- % Remaining ([1]; 1 μM, 20 min): 68.4%
- Aa/Ai Mean (n = 2) ([1]; 1 μM, 20 min): 0.62
- % Remaining ([1]; 1 μM, 30 min): 65.2%
- Aa/Ai Mean (n = 2) ([1]; 1 μM, 30 min): 0.59
- % Remaining ([1]; 1 μM, 60 min): 52.6%
- Aa/Ai Mean (n = 2) ([1]; 1 μM, 60 min): 0.47
- % Remaining [1, 11]: 55.5%
- Aa/Ai Mean (n = 2) [1, 11]: 0.50
- Compound A formed (Aa/Ai) ([1]; 5 min): 0.67
- Compound A formed (Aa/Ai) ([1]; 10 min): 0.67
- Compound A formed (Aa/Ai) ([1]; 20 min): 0.65
- Compound A formed (Aa/Ai) ([1]; 30 min): 0.61
- Compound A formed (Aa/Ai) ([1]; 60 min): 0.53
- Compound A formed (Aa/Ai) ([1]; NCF60 (60 min, no cofactors)): 0.58
